Laboratory results reported in patent US20230148450A9, “BICYCLIC HETEROARYL COMPOUNDS AND USES THEREOF” (Revolution Medicines, Inc., priority 2019, published 2023).

Tests used:
[1] = biological target: T1, SOS1 catalytic domain (residues 564-1049) (Homo sapiens, UniProt Q07889); assay: Binding affinity to SOS1 using Surface Plasmon Resonance (SPR); conditions: avi-tagged SOS1 catalytic domain immobilized on sensor chip; read-out: SOS1 SPR Equilibrium Kd
T1 construct: SOS1 catalytic domain (residues 564-1049) immobilized on a sensor chip
T1 sequence (Q07889 564-1049): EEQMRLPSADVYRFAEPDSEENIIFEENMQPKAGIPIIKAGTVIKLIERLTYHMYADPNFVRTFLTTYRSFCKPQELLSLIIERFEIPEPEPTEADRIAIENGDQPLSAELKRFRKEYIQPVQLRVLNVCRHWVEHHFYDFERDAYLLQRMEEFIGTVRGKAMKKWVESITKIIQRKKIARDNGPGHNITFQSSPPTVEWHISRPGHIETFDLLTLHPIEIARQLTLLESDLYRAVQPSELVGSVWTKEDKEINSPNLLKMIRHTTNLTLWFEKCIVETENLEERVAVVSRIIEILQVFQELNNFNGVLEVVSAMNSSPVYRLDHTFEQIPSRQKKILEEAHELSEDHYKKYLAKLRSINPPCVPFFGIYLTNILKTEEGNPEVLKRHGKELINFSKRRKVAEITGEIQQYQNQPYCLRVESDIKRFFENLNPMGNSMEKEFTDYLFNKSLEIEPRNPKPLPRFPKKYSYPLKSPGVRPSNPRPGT
Excerpt: Potency Assay: Measurement of the Binding Affinity of Compounds of the Invention to SOS! using Surface Plasmon Resonance (SPR)
The purpose of the SPR assay was to measure the direct binding of compounds to SOS1 catalytic domain (residues 564-1049) immobilized on a sensor chip. Data was reported as equilibrium dissociation constant (Kd) values.
Using a GE Biacore 8K SPR instrument, avi-tagged SOS1 catalytic domain protein was immobilized to a level of approximately 6000 response units (RU) on a streptavidin-coated SPR sensor chip in assay buffer containing 0.01 M HEPES, 0.15 M NaCl and 0.05% v/v Surfactant P20. In assay buffer containing 2% DMSO, concentration series of test compounds were generated spanning 5 μM to 4.9 nM over ten 2-fold dilutions. For each test compound, a separate 0 μM sample was generated for use during subsequent double reference subtraction. Serially for each test compound, individual dilution samples were flowed over the immobilized SOS1 protein at a flow rate of 50 μL/minute to monitor the association with SOS1. Dissociation of bound test compound from the SOS1 protein was immediately monitored by flowing assay buffer over the sensor surface and monitoring the decrease in binding signal back to the baseline level seen in the absence of compound. This was repeated for all compound dilutions in each series. The binding level response for each test compound concentration was noted immediately prior to the end of the association phase, and a secondary plot generated showing binding response level versus test compound concentration generated for each compound dilution series.

[2] = biological target: T2, SOS1 nucleotide exchange of KRAS (catalytic domain of SOS1, residues 564-1049; wild-type KRAS) (Homo sapiens, UniProt Q07889); assay: Mode of Action Assay: Inhibition of SOS1 Nucleotide Exchange Activity (TR-FRET); assay type: biochemical; conditions: TR-FRET signal
T2 construct: tagless catalytic domain of SOS1 (residues 564-1049)
T2 sequence (Q07889 564-1049): T1 sequence (Q07889 564-1049)
Description: The purpose of this assay was to characterize the inhibitory activity of compounds on SOS1 nucleotide exchange of KRAS. Data was reported as IC50 values based on the TR-FRET signal.
Note—the following protocol describes a procedure for monitoring the inhibition of SOS1 nucleotide exchange activity of wild-type KRAS in response to a compound of the invention. Other KRAS mutants and RAS isoforms maybe employed.
In assay buffer containing 20 mM HEPES, pH 7.5, 150 mM NaCl, 5 mM MgCl2, 0.05% Tween-20, 0.1% BSA, 1 mM DTT, concentration series of test compounds were generated spanning 100 μM to 1.7 nM over eleven 3-fold serial dilutions in a 384-well assay plate at a volume of 20 μL. The purified tagless catalytic domain of SOS1 (residues 564-1049) was first diluted in assay buffer at a concentration of 100 nM, and then 20 μL of the SOS1 containing solution was directly dispensed into compound plates. The SOS1/compound mixture was incubated at room temperature with constant mixing on an orbital shaker for 20 minutes to allow the reaction to reach equilibrium. A KRAS mixture was prepared by diluting 66.7 nM avi-tagged KRAS (residue 1-169), 3.33 nM Streptavidin-Tb and 333 nM EDA-GTP-DY-647P1 in assay buffer. This mixture was prepared immediately before addition to the SOS1/compound mixture to prevent intrinsic nucleotide exchange. Then 5 μL of the pre-incubated SOS1/compound mixture and 7.5 μL of the KRAS mixture were added sequentially in a 384-well low volume black round bottom plate and incubated at room temperature with constant shaking for 30 minutes. Time-resolved fluorescence was measured on a PerkinElmer Envision plate reader. DMSO and 10 μM of compound (i) were used as negative and positive controls, respectively.
Three replicates were performed for each compound. Data were normalized by the following: (Positive control—Sample signal)/(Positive control—negative control)*100. The data were fit using a four-parameter logistic fit.

[3] = test system: cellular pERK in PC-9 cells (EGFR Ex19Del); assay: Potency Assay: pERK; assay type: cell-based; conditions: Homo sapiens; PC-9 cells (EGFR Ex19Del), 1 hour incubation, AlphaLISA p-ERK1/2; read-out: SOS1 pERK IC50
Excerpt: The purpose of this assay is to measure the ability of test compounds to inhibit SOS1 function in cells. SOS1 activates RAS proteins by catalyzing the conversion of […] to […] in response to receptor tyrosine kinase activation. Activation of RAS induces a sequence of cellular signaling events that results in increased phosphorylation of ERK at […] (pERK). The procedure described below measures the level of cellular pERK in response to test compounds in PC-9 cells (EGFR Ex[…]). PC-9 cells were grown and maintained using media and procedures recommended by the ATCC. On the day prior to compound addition, cells were plated in 384-well cell culture plates (40 μL/well) and grown overnight in a 37° C., 5% CO2 incubator. Test compounds were prepared in 10, 3-fold dilutions in DMSO, with a top concentration of 10 mM. On the day of the assay, 40 nL of test compound was added to each well of cell culture plate using an Echo550 liquid handler (LabCyte). Concentrations of test compound were tested in duplicate with highest test concentration being 10 μM. After compound addition, cells were incubated for 1 hour at 37° C., 5% CO2. Following incubation, culture medium was removed and cells were washed once with phosphate buffered saline. Cellular pERK level was determined using the AlphaLISA SureFire Ultra p-ERK1/2 Assay Kit (PerkinElmer). Cells were lysed in 25 μL lysis buffer, with shaking at 600 RPM at room temperature for 15 minutes. Lysate (10 μL) was transferred to a 384-well Opti-plate (PerkinElmer) and 5 μL acceptor mix was added. The plate was centrifuged at 1000 RPM for 1 minute, and incubated in the dark for 2 hours. Following this incubation, 5 μL of donor mix was added, the plate was sealed and centrifuged at 1000 RPM for 1 minute, and the mixture was incubated for 2 hours at room temperature. Signal was read on an Envision plate reader (PerkinElmer) using standard AlphaLISA settings. Analysis of raw data was carried out in Excel (Microsoft) and Prism (GraphPad). Signal was plotted vs. the decadal logarithm of compound concentration, and IC50 was determined by fitting a 4-parameter sigmoidal concentration response model.

C[C@@H](Nc1ncnc2cn(CC3CCOC3)cc12)c1cc(N)cc(C(F)(F)F)c1 (stereo partly drawn) [Example 32, N-[(1R)-1-[3-amino-5-(trifluoromethyl)phenyl]ethyl]-6-(tetrahydrofuran-3-ylmethyl)pyrrolo[3,4-d]pyrimidin-4-amine]
Kd [1]: ≤ 400 nM

Cc1nc(N[C@H](C)c2cc(N)cc(C(F)(F)F)c2)c2cc(CN3CCOCC3)cn2n1 [Example 34, N-[(1R)-1-[3-amino-5-(trifluoromethyl)phenyl]ethyl]-2-methyl-6-(morpholinomethyl)pyrrolo[2,1-f][1,2,4]triazin-4-amine]
Kd [1]: > 400 nM | IC50 [2]: > 1000 nM

C[C@@H](Nc1ncnc2c1cc(C1CCNCC1)n2C)c1cc(N)cc(C(F)(F)F)c1 [Example 38, N-[(1R)-1-[3-amino-5-(trifluoromethyl)phenyl]ethyl]-7-methyl-6-(4-piperidyl)pyrrolo[2,3-d]pyrimidin-4-amine]
IC50 [3]: > 1000 nM

CC(=O)N1CCN(c2cc3c(N[C@H](C)c4cc(N)cc(C(F)(F)F)c4)ncnn3c2)CC1 [Example 43, 1-[4-[4-[[(1R)-1-[3-amino-5-(trifluoromethyl)phenyl]ethyl]amino]pyrrolo[2,1-f][1,2,4]triazin-6-yl]piperazin-1-yl]ethanone]
Kd [1]: > 400 nM | IC50 [2]: > 1000 nM

COc1cc2c(N[C@H](C)c3cc(N)cc(C(F)(F)F)c3)ncnn2c1 [Example 44, N-[(1R)-1-[3-amino-5-(trifluoromethyl)phenyl]ethyl]-6-methoxy-pyrrolo[2,1-f][1,2,4]triazin-4-amine]
Kd [1]: > 400 nM | IC50 [2]: > 1000 nM

CC(=O)N1CCN(c2cc3c(N[C@H](C)c4cccc(C(F)(F)F)c4)ncnn3c2)CC1 [Example 45, 1-[4-[4-[[(1R)-1-[3-(trifluoromethyl)phenyl]ethyl]amino]pyrrolo[2,1-f][1,2,4]triazin-6-yl]piperazin-1-yl]ethenone]
Kd [1]: ≤ 400 nM | IC50 [2]: > 1000 nM

Cc1nc(N[C@H](C)c2cc(N)cc(C(F)(F)F)c2)c2cc(C3=CCNCC3)sc2n1 [Example 46, N-[(1R)-1-[3-amino-5-(trifluoromethyl)phenyl]ethyl]-2-methyl-6-(1,2,3,6-tetrahydropyridin-4-yl)thieno[2,3-d]pyrimidin-4-amine]
IC50 [2]: > 1000 nM

C[C@@H](Nc1ccnc2cc(C3=CCNCC3)nn12)c1cc(N)cc(C(F)(F)F)c1 [Example 52, N-[(1R)-1-[3-amino-5-(trifluoromethyl)phenyl]ethyl]-2-(1,2,3,6-tetrahydropyridin-4-yl)pyrazolo[1,5-a]pyrimidin-7-amine]
Kd [1]: ≤ 400 nM | IC50 [2]: > 1000 nM

C[C@@H](Nc1cc(C(F)(F)F)cn2nc(C3=CCNCC3)nc12)c1cc(N)cc(C(F)(F)F)c1 [Example 54, N-[(1R)-1-[3-amino-5-(trifluoromethyl)phenyl]ethyl]-2-(1,2,3,6-tetrahydropyridin-4-yl)-6-(trifluoromethyl)-[1,2,4]triazolo[1,5-a]pyridin-8-amine]
IC50 [2]: > 1000 nM

C[C@@H](Nc1cccc2nc(C3=CCNCC3)nn12)c1cc(N)cc(C(F)(F)F)c1 [Example 55, N-[(1R)-1-[3-amino-5-(trifluoromethyl)phenyl]ethyl]-2-(1,2,3,6-tetrahydropyridin-4-yl)-[1,2,4]triazolo[1,5-a]pyridin-5-amine]
IC50 [2]: > 1000 nM

Cc1cn2nc(C(=O)N3CCOCC3)cc2c(N[C@H](C)c2cc(N)cc(C(F)(F)F)c2)n1 [Example 58., 60.]
Kd [1]: > 400 nM | IC50 [2]: > 1000 nM

Cc1cn2nc(C(=O)N3CCN(C)CC3)cc2c(N[C@H](C)c2cc(N)cc(C(F)(F)F)c2)n1 [Example 59]
Kd [1]: ≤ 400 nM | IC50 [2]: > 1000 nM

Cc1nc(N[C@H](C)c2cc(N)cc(C(F)(F)F)c2)c2cc(-c3ccnc(N4CCOCC4)c3)cn2n1 [Example 63, N-[(1R)-1-[3-amino-5-(trifluoromethyl)phenyl]ethyl]-2-methyl-6-[2-(morpholin-4-yl)pyridin-4-yl]pyrrolo[2,1-f][1,2,4]triazin-4-amine]
Kd [1]: ≤ 400 nM | IC50 [2]: > 1000 nM

COc1ncccc1-c1cc2c(N[C@H](C)c3cc(N)cc(C(F)(F)F)c3)nc(C)nn2c1 [Example 64, N-[(1R)-1-[3-amino-5-(trifluoromethyl)phenyl]ethyl]-6-(2-methoxypyridin-3-yl)-2-methylpyrrolo[2,1-f][1,2,4]triazin-4-amine]
Kd [1]: > 400 nM | IC50 [2]: > 1000 nM

C[C@@H](Nc1ncnc2c1cc(C1=CCNCC1)n2C)c1cc(N)cc(C(F)(F)F)c1 [Example 67]
Kd [1]: ≤ 400 nM

Cc1cn2nc(C(=O)N3CCNCC(F)(F)C3)cc2c(N[C@H](C)c2cc(N)cc(C(F)(F)F)c2)n1 [Example 77]
IC50 [2]: > 1000 nM

Cc1cn2nc(C(=O)N3CC(N4CCC4)C3)cc2c(N[C@H](C)c2cc(N)cc(C(F)(F)F)c2)n1 [Example 79]
IC50 [2]: > 1000 nM

Cc1cn2nc(C(=O)N3CC4CC(C3)N4C)cc2c(N[C@H](C)c2cc(N)cc(C(F)(F)F)c2)n1 [Example 80]
IC50 [2]: > 1000 nM

C[C@@H](Nc1nc(Cl)cc2nc(C(=O)N3CCOCC3)cn12)c1cccc(C(F)(F)CO)c1 [Example 86]
Kd [1]: ≤ 400 nM | IC50 [2]: < 1000 nM

C[C@@H](Nc1nccc2nc(C(=O)N3CC4(CN(CCF)C4)C3)cn12)c1cccc(C(F)F)c1F [Example 92]
Kd [1]: ≤ 400 nM | IC50 [2]: < 1000 nM

C[C@@H](Nc1nccc2nc(C(=O)N3CC4(CN(CC(F)F)C4)C3)cn12)c1cccc(C(F)F)c1F [Example 93]
Kd [1]: ≤ 400 nM | IC50 [2]: < 1000 nM
